Measurements published in patent US9802941B2, “Compounds and methods for inhibiting histone demethylases” (Gilead Sciences, Inc., priority 2014, dated 2017).
Read-outs that look alike come from different tables or passages of the source.

Assays:
Assay type in all cases: biochemical
KDM2B (FBXL10) = target: T1, KDM2B (FBXL10) (Homo sapiens, UniProt Q8NHM5); assay: Histone lysine demethylase AlphaLISA assay, KDM2B
T1 construct: KDM2B; BPS,; 1-650; Bac; purchased BPS Bioscience, US; host or cells: baculovirus system
T1 sequence (Q8NHM5 1-650): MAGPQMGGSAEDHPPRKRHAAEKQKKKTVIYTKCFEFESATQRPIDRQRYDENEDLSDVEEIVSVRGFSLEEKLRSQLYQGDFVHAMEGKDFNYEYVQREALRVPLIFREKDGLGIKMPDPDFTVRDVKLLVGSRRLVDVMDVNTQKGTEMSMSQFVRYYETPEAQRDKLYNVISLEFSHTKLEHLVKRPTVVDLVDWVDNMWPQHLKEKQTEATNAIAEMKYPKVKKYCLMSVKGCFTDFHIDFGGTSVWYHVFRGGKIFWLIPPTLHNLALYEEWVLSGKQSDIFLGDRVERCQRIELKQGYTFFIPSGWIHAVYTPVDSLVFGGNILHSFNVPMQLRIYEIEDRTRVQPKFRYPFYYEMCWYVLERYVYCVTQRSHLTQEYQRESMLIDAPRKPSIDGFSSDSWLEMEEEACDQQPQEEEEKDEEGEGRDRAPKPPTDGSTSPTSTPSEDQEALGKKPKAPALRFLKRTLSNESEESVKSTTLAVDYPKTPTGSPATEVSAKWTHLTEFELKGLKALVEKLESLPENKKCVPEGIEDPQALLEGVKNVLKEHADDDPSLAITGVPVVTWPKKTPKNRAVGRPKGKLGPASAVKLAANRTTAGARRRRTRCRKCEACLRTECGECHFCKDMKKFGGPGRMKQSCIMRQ
Procedure, shortened: (§1)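 AlphaLISA readout after sequential addition of acceptor beads and streptavidin donor beads, incubated at room temperature in the dark. Demethylase reaction ran at room temperature following a 10-minute enzyme–compound preincubation in 50 mM Hepes (pH 7.4-8.0), 0.1% BSA, Tween-20, 5 μM (NH4)2Fe(SO4)2.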

KDM6A (UTX) = target: T2, KDM6A (UTX) (Homo sapiens, UniProt O15550); assay: Histone lysine demethylase AlphaLISA assay, KDM6A
T2 construct: KDM6A (UTX); BRIC; 919-1401; E. coli; host or cells: E. coli
Experimental: The compounds of the application, or a pharmaceutically acceptable salt, or solvate, or prodrug thereof, are tested in an in vitro AlphaLISA assay. Enzymes are dissolved in enzyme buffer and incubated before they are added to DMSO solutions of compounds of the application, or a pharmaceutically acceptable salt, or solvate, or prodrug thereof, in enzyme buffer. The reaction mixture is then incubated for an additional period of time before substrate solution is added and then the resulting mixture again incubated. Acceptor beads and suspended Epigenetic Buffer from stock are added and the suspension is again incubated before a suspension of streptavidin donor beads in Epigenetic Buffer is added. After an additional period of incubation, the plates are read.
The ability of compounds of the application to inhibit the histone lysine demethylase activity in vitro of different enzymes was determined.
The reaction mixture was incubated for another 10 minutes before 5 μL of substrate solution was added and the resulting mixture was then incubated at room temperature. […] After incubation at room temperature in the dark, the plates were read.
Enzyme Buffer: 50 mM Hepes (pH 7.4-8.0), 0.003-0.01% Tween-20, 0.1% BSA; 5 μM (NH4)2Fe(SO4)2.

PHF8 (KDM7) = target: T3, PHF8 (KDM7) (Homo sapiens, UniProt Q9UPP1); assay: Histone lysine demethylase AlphaLISA assay, PHF8
T3 construct: KDM7 (PHF8); BRIC; 1-1322; Bac
Procedure, shortened: as §1

KDM5B (PLU-1) = target: T4, KDM5B (PLU-1) (Homo sapiens, UniProt Q9UGL1); assay: Histone lysine demethylase AlphaLISA assay, KDM5B
T4 construct: BRIC; 1-809; E. coli; host or cells: E. coli
T4 sequence (Q9UGL1 1-809): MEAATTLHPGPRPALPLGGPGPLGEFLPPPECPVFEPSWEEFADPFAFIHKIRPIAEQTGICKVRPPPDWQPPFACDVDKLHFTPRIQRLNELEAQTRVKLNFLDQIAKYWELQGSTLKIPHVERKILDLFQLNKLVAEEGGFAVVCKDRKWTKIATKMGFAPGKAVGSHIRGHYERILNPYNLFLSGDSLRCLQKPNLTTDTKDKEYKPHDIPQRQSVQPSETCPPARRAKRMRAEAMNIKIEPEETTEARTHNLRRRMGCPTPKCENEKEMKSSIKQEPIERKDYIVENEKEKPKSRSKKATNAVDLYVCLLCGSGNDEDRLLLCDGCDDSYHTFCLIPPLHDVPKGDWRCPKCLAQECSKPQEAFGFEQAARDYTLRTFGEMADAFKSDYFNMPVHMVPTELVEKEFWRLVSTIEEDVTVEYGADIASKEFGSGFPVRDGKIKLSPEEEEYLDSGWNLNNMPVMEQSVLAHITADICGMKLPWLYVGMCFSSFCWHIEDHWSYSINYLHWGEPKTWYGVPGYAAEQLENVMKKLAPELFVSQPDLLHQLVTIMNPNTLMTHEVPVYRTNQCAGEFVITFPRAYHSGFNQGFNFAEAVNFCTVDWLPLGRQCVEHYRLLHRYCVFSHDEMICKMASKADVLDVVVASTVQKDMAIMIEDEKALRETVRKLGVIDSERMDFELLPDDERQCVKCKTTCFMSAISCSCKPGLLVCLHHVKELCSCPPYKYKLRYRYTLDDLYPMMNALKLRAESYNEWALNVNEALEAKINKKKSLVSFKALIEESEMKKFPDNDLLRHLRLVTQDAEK
Procedure, shortened: as §1

KDM4C (JMJD2C) = target: T5, KDM4C (JMJD2C) (Homo sapiens, UniProt Q9H3R0); assay: Histone lysine demethylase AlphaLISA assay, KDM4C
T5 construct: KDM4C; BRIC, Denmark; 1-349; E. coli; host or cells: E. coli
T5 sequence (Q9H3R0 1-349): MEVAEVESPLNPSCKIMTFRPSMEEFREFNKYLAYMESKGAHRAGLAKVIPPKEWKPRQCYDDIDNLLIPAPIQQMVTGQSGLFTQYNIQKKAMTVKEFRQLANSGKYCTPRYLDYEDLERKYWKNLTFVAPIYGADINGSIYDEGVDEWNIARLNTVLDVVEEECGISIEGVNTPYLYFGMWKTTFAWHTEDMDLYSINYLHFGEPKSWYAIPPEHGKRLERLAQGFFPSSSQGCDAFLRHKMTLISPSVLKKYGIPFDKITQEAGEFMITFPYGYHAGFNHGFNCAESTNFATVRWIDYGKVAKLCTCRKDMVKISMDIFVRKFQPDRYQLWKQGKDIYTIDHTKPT
Procedure, shortened: as §1

[1] = AlphaLISA assay, read-out: HDME Inhibition KDM2B (IC50)
[2] = AlphaLISA, in vitro, read-out: HDME Inhibition KDM2B
[3] = AlphaLISA assay, read-out: HDME Inhibition KDM6A (IC50)
[4] = AlphaLISA, in vitro, read-out: HDME Inhibition KDM6A
[5] = AlphaLISA assay, read-out: HDME Inhibition PHF8 (IC50)
[6] = AlphaLISA, in vitro, read-out: HDME Inhibition PHF8
[7] = AlphaLISA, in vitro, read-out: HDME Inhibition KDM4C
[8] = AlphaLISA assay, read-out: HDME Inhibition KDM5B (IC50)
[9] = AlphaLISA, in vitro, read-out: HDME Inhibition KDM5B
[10] = AlphaLISA assay, read-out: HDME Inhibition KDM4C (IC50)

T2 sequence (O15550 919-1401): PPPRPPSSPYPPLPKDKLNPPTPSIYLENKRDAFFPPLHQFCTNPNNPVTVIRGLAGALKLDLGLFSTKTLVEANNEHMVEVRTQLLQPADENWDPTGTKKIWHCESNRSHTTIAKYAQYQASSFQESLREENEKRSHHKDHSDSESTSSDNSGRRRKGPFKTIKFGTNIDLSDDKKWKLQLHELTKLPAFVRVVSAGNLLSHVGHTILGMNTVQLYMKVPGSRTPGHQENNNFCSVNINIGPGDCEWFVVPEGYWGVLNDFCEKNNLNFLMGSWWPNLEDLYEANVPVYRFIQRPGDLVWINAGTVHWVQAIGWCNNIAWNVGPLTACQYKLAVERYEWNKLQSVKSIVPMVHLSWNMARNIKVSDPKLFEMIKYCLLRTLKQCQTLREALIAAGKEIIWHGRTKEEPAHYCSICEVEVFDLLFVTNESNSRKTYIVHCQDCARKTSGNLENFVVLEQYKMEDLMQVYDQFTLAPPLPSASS
T3 sequence (Q9UPP1 37-440 limits assumed): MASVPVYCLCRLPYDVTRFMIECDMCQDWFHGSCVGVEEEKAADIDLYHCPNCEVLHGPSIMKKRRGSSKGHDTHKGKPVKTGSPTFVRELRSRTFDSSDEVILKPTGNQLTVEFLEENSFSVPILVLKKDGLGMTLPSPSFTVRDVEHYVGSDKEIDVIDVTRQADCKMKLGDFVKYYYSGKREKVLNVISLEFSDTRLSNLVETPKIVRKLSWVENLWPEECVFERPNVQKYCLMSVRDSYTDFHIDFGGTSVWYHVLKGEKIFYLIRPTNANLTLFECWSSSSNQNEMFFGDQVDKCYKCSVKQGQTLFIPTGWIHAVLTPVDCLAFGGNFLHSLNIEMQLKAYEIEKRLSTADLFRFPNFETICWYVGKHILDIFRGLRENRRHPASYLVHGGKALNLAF

| SMILES | IC50 (KDM2B (FBXL10); [1]) | IC50 (KDM2B (FBXL10); [2]) | IC50 (KDM6A (UTX); [3]) | IC50 (KDM6A (UTX); [4]) | IC50 (PHF8 (KDM7); [5]) | IC50 (PHF8 (KDM7); [6]) | IC50 (KDM5B (PLU-1)) | IC50 (KDM4C (JMJD2C); [7]) | IC50 (KDM5B (PLU-1); [8]) | IC50 (KDM5B (PLU-1); [9]) | IC50 (KDM4C (JMJD2C); [10]) |
| --- | --- | --- | --- | --- | --- | --- | --- | --- | --- | --- | --- |
| CCC(C)c1cnc(CNCc2cc(C(=O)O)cc(C)n2)n1Cc1ccc(F)cc1 (stereo not shown) [Compound 9, 2-[({[5-(butan-2-yl)-1-[(4-fluorophenyl)methyl]-1H-imidazole-2-yl]methyl}amino)methyl]-6-methyl-pyridine-4-carboxylic acid] | > 10 µM | > 10 µM | > 10 µM | > 10 µM | > 10 µM | > 10 µM | 0.714 µM | 0.299 µM | – | – | – |
| COc1ccc(CCn2ccnc2CNCc2cc(C(=O)O)cc(C)n2)cc1 [Compound 17, 2-{[({1-[2-(4-methoxyphenyl)ethyl]-1H-imidazol-2-yl}methyl)amino]methyl}-6-methylpyridine-4-carboxylic acid] | > 10 µM | > 10 µM | > 10 µM | > 10 µM | > 10 µM | > 10 µM | – | > 10 µM | > 10 µM | > 10 µM | > 10 µM |
| Cc1cc(C(=O)O)cc(CNCc2ncc(CCCc3ccccc3)n2Cc2ccc(F)cc2)n1 [Compound 31, 2-{[({1-[(4-fluorophenyl)methyl]-5-(3-phenylpropyl)-1H-imidazol-2-yl}methyl)amino]methyl}-6-methylpyridine-4-carboxylic acid] | – | 3.97 µM | > 10 µM | > 10 µM | > 10 µM | > 10 µM | – | > 10 µM | > 10 µM | > 10 µM | > 10 µM |
| CCCC(C)c1cnc(CNCc2cc(C(=O)O)cc(C)n2)n1Cc1ccc(F)cc1 (stereo not shown) [Compound 10, 2-{[({1-[(4-fluorophenyl)methyl]-5-(pentan-2-yl)-1H-imidazole-2-yl}methyl)amino]methyl}-6-methylpyridine-4-carboxylic acid] | > 10 µM | > 10 µM | > 10 µM | > 10 µM | > 10 µM | > 10 µM | 1.28 µM | 1.37 µM | – | – | – |
| CC(=O)c1ccc(Cn2ccnc2CNCc2cc(C(=O)O)cc(C)n2)cc1 [Compound 24, 2-{[({1-[(4-acetylphenyl)methyl]-1H-imidazol-2-yl}methyl)amino]methyl}-6-methylpyridine-4-carboxylic acid] | – | 2.23 µM | – | 8.35 µM | – | – | 0.262 µM | > 10 µM | – | – | > 10 µM |

Other lines, results leading:

| IC50 (KDM2B (FBXL10); [1]) | IC50 (KDM2B (FBXL10); [2]) | IC50 (KDM6A (UTX); [3]) | IC50 (KDM6A (UTX); [4]) | IC50 (PHF8 (KDM7); [5]) | IC50 (PHF8 (KDM7); [6]) | IC50 (KDM5B (PLU-1)) | IC50 (KDM4C (JMJD2C); [7]) | IC50 (KDM5B (PLU-1); [8]) | IC50 (KDM5B (PLU-1); [9]) | IC50 (KDM4C (JMJD2C); [10]) | SMILES |
| --- | --- | --- | --- | --- | --- | --- | --- | --- | --- | --- | --- |
| – | 0.155 µM | > 10 µM | > 10 µM | – | 0.472 µM | – | > 10 µM | > 10 µM | > 10 µM | > 10 µM | Cc1cc(C(=O)O)cc(CNCc2ncc(C3CCC3)n2Cc2ccc(F)cc2)n1 [Compound 39, 2-{[({5-cyclobutyl-1-[(4-fluorophenyl)methyl]-1H-imidazol-2-yl}methyl)amino]methyl}-6-methyl pyridine-4-carboxylic acid] |
| – | 0.297 µM | > 10 µM | > 10 µM | – | 0.489 µM | – | > 10 µM | > 10 µM | > 10 µM | > 10 µM | Cc1cc(C(=O)O)cc(CNCc2nnc(C)n2Cc2ccc(F)cc2)n1 [Compound 37, 2-{[({4-[(4-Fluorophenyl)methyl]-5-methyl-4H-1,2,4-triazol-3-yl}methyl)amino]methyl}-6-methylpyridine-4-carboxylic acid] |
| – | 0.599 µM | > 10 µM | > 10 µM | – | 1.53 µM | – | > 10 µM | > 10 µM | > 10 µM | > 10 µM | Cc1cc(C(=O)O)cc(CNCc2nnc(Cc3cccs3)n2Cc2ccc(F)cc2)n1 [Compound 40, 2-{[({4-[(4-fluorophenyl)methyl]-5-(thiophen-2-ylmethyl)-4H-1,2,4-triazol-3-yl}methyl)amino]methyl}-6-methylpyridine-4-carboxylic acid] |
